Reference: patent publication US9695155B2, “Herbicidal substituted pyrimidinyloxy benzene compounds” (E. I. DU PONT DE NEMOURS AND COMPANY, priority 2013, dated 2017)

How the values were obtained:
barnyardgrass [1] = assay: Test A preemergence; format: in vivo, Echinochloa crus-galli
In short: (§1)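 Pre- and postemergence greenhouse screen. Soil: loam + sand. Spray carrier: solvent mixture, non-phytotoxic, with surfactant. Post timing at 1–2 leaves, height 2–10 cm. Readout: visual injury on a 0–100 scale roughly 10 days after application, untreated plants as reference.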

large (Lg) crabgrass [2] = assay: Test A preemergence; format: in vivo, Digitaria sanguinalis
In short: as §1

giant foxtail [3] = assay: Test A preemergence; format: in vivo, Setaria faberii
In short: as §1

morningglory [4] = assay: Test A preemergence; format: in vivo, Ipomoea spp.
In short: as §1

pigweed [5] = assay: Test A preemergence; format: in vivo, Amaranthus retroflexus
In short: as §1

velvetleaf [6] = assay: Test A preemergence; format: in vivo, Abutilon theophrasti
In short: as §1

wheat [7] = assay: Test A preemergence; format: in vivo, Triticum aestivum
In short: as §1

corn [8] = assay: Test A preemergence; format: in vivo, Zea mays
In short: as §1

barnyardgrass [9] = assay: Test A postemergence; format: in vivo, Echinochloa crus-galli
In short: as §1

large (Lg) crabgrass [10] = assay: Test A postemergence; format: in vivo, Digitaria sanguinalis
In short: as §1

giant foxtail [11] = assay: Test A postemergence; format: in vivo, Setaria faberii
In short: as §1

morningglory [12] = assay: Test A postemergence; format: in vivo, Ipomoea spp.
In short: as §1

pigweed [13] = assay: Test A postemergence; format: in vivo, Amaranthus retroflexus
In short: as §1

velvetleaf [14] = assay: Test A postemergence; format: in vivo, Abutilon theophrasti
In short: as §1

wheat [15] = assay: Test A postemergence; format: in vivo, Triticum aestivum
In short: as §1

corn [16] = assay: Test A postemergence; format: in vivo, Zea mays
In short: as §1

rice [17] = assay: Test B flooded paddy test; format: in vivo, Oryza sativa; conditions: Flood, 250 g ai/ha, 0 to 100 scale where 0 is no effect and 100 is complete control
In short: (§2)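 Post-emergence paddy-water application at the 2-leaf stage, with 3 cm flood kept for the whole test. Response was judged visually relative to controls after 13 to 15 greenhouse days, 0 indicating no effect and 100 complete control.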

sedge, umbrella [18] = assay: Test B flooded paddy test; format: in vivo, Cyperus difformis; conditions: Flood, 250 g ai/ha, 0 to 100 scale where 0 is no effect and 100 is complete control
In short: as §2

Heteranthera limosa = assay: Test B flooded paddy test; format: in vivo; conditions: Flood, 250 g ai/ha, 0 to 100 scale where 0 is no effect and 100 is complete control
In short: as §2

barnyardgrass [19] = assay: Test B flooded paddy test; format: in vivo, Echinochloa crus-galli; conditions: Flood, 250 g ai/ha, 0 to 100 scale where 0 is no effect and 100 is complete control
In short: as §2

rice [20] = assay: Test C flooded paddy test; format: in vivo, Oryza sativa; conditions: Flood, scale 0 to 100 (0 no effect, 100 complete control), 13 to 15 days
Description: (§3) At time of treatment, test pots were flooded to 3 cm above the soil surface, treated by application of test compounds directly to the paddy water, and then maintained at that water depth for the duration of the test. Treated plants and controls were maintained in a greenhouse for 13 to 15 days, after which time all species were compared to controls and visually evaluated. […] A dash (-) response means no test result.

sedge, umbrella [21] = assay: Test C flooded paddy test; format: in vivo, Cyperus difformis; conditions: Flood, scale 0 to 100 (0 no effect, 100 complete control), 13 to 15 days
Description: as §3

ducksalad = assay: Test C flooded paddy test; format: in vivo, Heteranthera limosa; conditions: Flood, scale 0 to 100 (0 no effect, 100 complete control), 13 to 15 days
Description: as §3

barnyardgrass [22] = assay: Test C flooded paddy test; format: in vivo, Echinochloa crus-galli; conditions: Flood, scale 0 to 100 (0 no effect, 100 complete control), 13 to 15 days
Description: as §3

kochia [23] = assay: Test A preemergence; format: in vivo, Kochia scoparia; conditions: 1000 g ai/ha, 0 to 100 scale, 0 no effect, 100 complete control, approx. 10 days
In short: as §1

ragweed [24] = assay: Test A preemergence; format: in vivo, Ambrosia elatior; conditions: 1000 g ai/ha, 0 to 100 scale, 0 no effect, 100 complete control, approx. 10 days
In short: as §1

Italian ryegrass [25] = assay: Test A preemergence; format: in vivo, Lolium multiflorum; conditions: 1000 g ai/ha, 0 to 100 scale, 0 no effect, 100 complete control, approx. 10 days
In short: as §1

kochia [26] = assay: Test A postemergence; format: in vivo, Kochia scoparia; conditions: 1000 g ai/ha, 0 to 100 scale, 0 no effect, 100 complete control
In short: as §1

ragweed [27] = assay: Test A postemergence; format: in vivo, Ambrosia elatior; conditions: 1000 g ai/ha, 0 to 100 scale, 0 no effect, 100 complete control
In short: as §1

Italian ryegrass [28] = assay: Test A postemergence; format: in vivo, Lolium multiflorum; conditions: 1000 g ai/ha, 0 to 100 scale, 0 no effect, 100 complete control
In short: as §1

blackgrass = assay: Test A postemergence; format: in vivo, Alopecurus myosuroides; conditions: 1000 g ai/ha, 0 to 100 scale, 0 no effect, 100 complete control
In short: as §1

galium = assay: Test A postemergence; format: in vivo, Galium aparine; conditions: 1000 g ai/ha, 0 to 100 scale, 0 no effect, 100 complete control
In short: as §1

[29] = 125 g ai/ha, 0 to 100 scale where 0 is no effect and 100 is complete control
[30] = 500 g ai/ha, 0 to 100 scale, 0 no effect, 100 complete control, approx. 10 days
[31] = 500 g ai/ha, 0 to 100 scale, 0 no effect, 100 complete control

Compound: Cc1ccc(Oc2ncc(Cl)cn2)c(-n2cc(Br)cn2)c1 [Compound 40]
- Plant response rating, Barnyardgrass (barnyardgrass [1]; [29]): 40
- Barnyardgrass plant response rating (barnyardgrass [1]; [30]): 50
- Plant response rating, Crabgrass, Large (large (Lg) crabgrass [2]; [29]): 60
- Crabgrass, Large plant response rating (large (Lg) crabgrass [2]; [30]): 80
- Plant response rating, Foxtail, Giant (giant foxtail [3]; [29]): 10
- Foxtail, Giant plant response rating (giant foxtail [3]; [30]): 60
- Plant response rating, Morningglory (morningglory [4]; [29]): 0
- Morningglory plant response rating (morningglory [4]; [30]): 0
- Plant response rating, Pigweed (pigweed [5]; [29]): 0
- Pigweed plant response rating (pigweed [5]; [30]): 50
- Plant response rating, Velvetleaf (velvetleaf [6]; [29]): 50
- Velvetleaf plant response rating (velvetleaf [6]; [30]): 70
- Plant response rating, Wheat (wheat [7]; [29]): 0
- Wheat plant response rating (wheat [7]; [30]): 0
- Plant response rating, Corn (corn [8]; [29]): 0
- Corn plant response rating (corn [8]; [30]): 0
- Plant response rating, Barnyardgrass (barnyardgrass [9]; [29]): 0
- Plant response rating, Barnyardgrass (barnyardgrass [9]; [31]): 20
- Plant response rating, Crabgrass, Large (large (Lg) crabgrass [10]; [29]): 50
- Plant response rating, Crabgrass, Large (large (Lg) crabgrass [10]; [31]): 70
- Plant response rating, Foxtail, Giant (giant foxtail [11]; [29]): 10
- Plant response rating, Foxtail, Giant (giant foxtail [11]; [31]): 60
- Plant response rating, Morningglory (morningglory [12]; [29]): 70
- Plant response rating, Morningglory (morningglory [12]; [31]): 100
- Plant response rating, Pigweed (pigweed [13]; [29]): 40
- Plant response rating, Pigweed (pigweed [13]; [31]): 60
- Plant response rating, Velvetleaf (velvetleaf [14]; [29]): 100
- Plant response rating, Velvetleaf (velvetleaf [14]; [31]): 100
- Plant response rating, Wheat (wheat [15]; [29]): 0
- Plant response rating, Wheat (wheat [15]; [31]): 0
- Plant response rating, Corn (corn [16]; [29]): 0
- Plant response rating, Corn (corn [16]; [31]): 0
- Plant response rating, Rice (rice [17]): 15
- Plant response rating, Sedge, Umbrella (sedge, umbrella [18]): 80
- Plant response rating, Ducksalad (Heteranthera limosa): 80
- Plant response rating, Barnyardgrass (barnyardgrass [19]): 20
- Plant response rating, Rice (rice [20]; 31 g ai/ha): 0
- Plant response rating, Rice (rice [20]; 62 g ai/ha): 0
- Plant response rating, Rice (rice [20]; 125 g ai/ha): 0
- Plant response rating, Rice (rice [20]; 250 g ai/ha): 0
- Plant response rating, Sedge, Umbrella (sedge, umbrella [21]; 31 g ai/ha): 50
- Plant response rating, Sedge, Umbrella (sedge, umbrella [21]; 62 g ai/ha): 75
- Plant response rating, Sedge, Umbrella (sedge, umbrella [21]; 125 g ai/ha): 75
- Plant response rating, Sedge, Umbrella (sedge, umbrella [21]; 250 g ai/ha): 75
- Plant response rating, Ducksalad (ducksalad; 31 g ai/ha): 0
- Plant response rating, Ducksalad (ducksalad; 62 g ai/ha): 0
- Plant response rating, Ducksalad (ducksalad; 125 g ai/ha): 40
- Plant response rating, Ducksalad (ducksalad; 250 g ai/ha): 60
- Plant response rating, Barnyardgrass (barnyardgrass [22]; 31 g ai/ha): 0
- Plant response rating, Barnyardgrass (barnyardgrass [22]; 62 g ai/ha): 0
- Plant response rating, Barnyardgrass (barnyardgrass [22]; 125 g ai/ha): 15
- Plant response rating, Barnyardgrass (barnyardgrass [22]; 250 g ai/ha): 15

Compound: FC(F)(F)c1cnn(-c2c(Oc3ncc(Cl)cn3)cccc2-c2nnco2)c1 [Compound 298, 2-[3-[(5-chloro-2-pyrimidinyl)oxy]-2-[4-(trifluoromethyl)-1H-pyrazol-1-yl]phenyl]-1,3,4-oxadiazole]
- pest or weed control at 1000 g/ha (barnyardgrass [1]; Echinochloa crus-galli, pre-emergence, 240 h, 1000 g ai/ha, 0 to 100 scale, 0 no effect, 100 complete control, approx. 10 days, read-out: Barnyardgrass plant response rating): 100%
- Kochia plant response rating (kochia [23]): 90
- Ragweed plant response rating (ragweed [24]): 90
- Ryegrass, Italian plant response rating (Italian ryegrass [25]): 50
- pest or weed control at 1000 g/ha (giant foxtail [3]; Setaria faberi, pre-emergence, 240 h, 1000 g ai/ha, 0 to 100 scale, 0 no effect, 100 complete control, approx. 10 days, read-out: Foxtail, Giant plant response rating): 100%
- pest or weed control at 1000 g/ha (pigweed [5]; Amaranthus retroflexus, pre-emergence, 240 h, 1000 g ai/ha, 0 to 100 scale, 0 no effect, 100 complete control, approx. 10 days, read-out: Pigweed plant response rating): 100%
- pest or weed control at 1000 g/ha (barnyardgrass [9]; Echinochloa crus-galli, post-emergence, 240 h, 1000 g ai/ha, 0 to 100 scale, 0 no effect, 100 complete control, read-out: Plant response rating Barnyardgrass): 90%
- Plant response rating, Kochia (kochia [26]): 100
- Plant response rating, Ragweed (ragweed [27]): 90
- Plant response rating, Ryegrass, Italian (Italian ryegrass [28]): 70
- pest or weed control at 1000 g/ha (giant foxtail [11]; Setaria faberi, post-emergence, 240 h, 1000 g ai/ha, 0 to 100 scale, 0 no effect, 100 complete control, read-out: Plant response rating Foxtail, Giant): 90%
- pest or weed control at 1000 g/ha (pigweed [13]; Amaranthus retroflexus, post-emergence, 240 h, 1000 g ai/ha, 0 to 100 scale, 0 no effect, 100 complete control, read-out: Plant response rating Pigweed): 100%
- plant injury at 1000 g/ha (wheat [15]; Triticum aestivum, post-emergence, 240 h, 1000 g ai/ha, 0 to 100 scale, 0 no effect, 100 complete control, read-out: Plant response rating Wheat): 40%
- plant injury at 1000 g/ha (corn [16]; Zea mays, post-emergence, 240 h, 1000 g ai/ha, 0 to 100 scale, 0 no effect, 100 complete control, read-out: Plant response rating Corn): 70%
- Plant response rating, Blackgrass (blackgrass): 80
- Plant response rating, Galium (galium): 80
- plant injury at 250 g/ha (rice [17]; Oryza sativa, read-out: Plant response rating, Rice): 0%
- pest or weed control at 250 g/ha (sedge, umbrella [18]; Cyperus difformis, read-out: Plant response rating, Sedge, Umbrella): 30%
- pest or weed control at 250 g/ha (Heteranthera limosa; Heteranthera limosa, read-out: Plant response rating, Ducksalad): 0%
- pest or weed control at 250 g/ha (barnyardgrass [19]; Echinochloa crus-galli, read-out: Plant response rating, Barnyardgrass): 0%
